For one experiment, the system named is T-cell. Kind of experiment: Immunomodulatory activity in C57BL/6 mouse mesenteric lymph node T cells assessed as inhibition of concanavalin A stimulated T-cell proliferation incubated for 68 hrs by CCK-8 assay. Format: functional, cell-based. The following applies: C57BL/6, T-cell.
Experiment [1] concerns the target T1, Pyruvate kinase PKM (Homo sapiens, UniProt P14618). Kind of experiment: Activation of PKM2 (unknown origin) incubated for 30 mins.
Target sequence in this assay (P14618 whole entry): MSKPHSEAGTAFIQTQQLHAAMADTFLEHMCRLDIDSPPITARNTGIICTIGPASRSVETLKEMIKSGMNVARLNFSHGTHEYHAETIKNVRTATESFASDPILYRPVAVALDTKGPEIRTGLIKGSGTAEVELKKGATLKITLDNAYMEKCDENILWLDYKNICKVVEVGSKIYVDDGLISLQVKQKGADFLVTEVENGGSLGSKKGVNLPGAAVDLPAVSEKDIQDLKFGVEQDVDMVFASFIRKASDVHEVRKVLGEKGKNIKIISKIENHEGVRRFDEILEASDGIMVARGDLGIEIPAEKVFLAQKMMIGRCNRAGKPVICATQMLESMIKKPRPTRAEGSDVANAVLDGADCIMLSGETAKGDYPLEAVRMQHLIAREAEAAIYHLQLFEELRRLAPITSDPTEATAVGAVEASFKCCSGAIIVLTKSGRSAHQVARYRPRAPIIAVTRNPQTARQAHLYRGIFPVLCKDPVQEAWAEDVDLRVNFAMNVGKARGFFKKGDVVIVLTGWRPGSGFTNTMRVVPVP
The target of experiment [2] is T1, Pyruvate kinase PKM. Nature of the experiment: Activation of PKM2 (unknown origin) at 3 uM incubated for 30 mins relative to control.
Target sequence in this assay (P14618 2-531 limits assumed): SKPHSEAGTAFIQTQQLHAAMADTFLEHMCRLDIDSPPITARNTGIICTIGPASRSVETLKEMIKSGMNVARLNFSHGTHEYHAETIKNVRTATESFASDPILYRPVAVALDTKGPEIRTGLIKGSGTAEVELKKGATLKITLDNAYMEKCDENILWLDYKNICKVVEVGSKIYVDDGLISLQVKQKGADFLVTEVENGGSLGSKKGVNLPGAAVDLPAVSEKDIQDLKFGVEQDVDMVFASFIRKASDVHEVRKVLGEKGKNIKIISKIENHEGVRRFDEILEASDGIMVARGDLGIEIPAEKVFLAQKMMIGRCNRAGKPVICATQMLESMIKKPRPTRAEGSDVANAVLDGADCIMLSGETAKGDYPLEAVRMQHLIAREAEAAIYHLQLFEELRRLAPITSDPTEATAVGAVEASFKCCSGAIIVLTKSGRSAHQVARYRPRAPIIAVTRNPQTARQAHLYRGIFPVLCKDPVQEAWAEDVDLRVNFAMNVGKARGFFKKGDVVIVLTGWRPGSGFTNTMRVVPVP

Activity calls are given as the source filed them. The rule behind the calls is not given here.

These results are taken from ChEMBL document CHEMBL5338738, “Discovery of Novel Sesquiterpene Lactone Derivatives as Potent PKM2 Activators for the Treatment of Ulcerative Colitis” (J Med Chem, 2023).

For orientation: IC50 means the concentration needed to halve the response being measured. A word on the EC50: it is the concentration giving half of the maximal effect. Read a high EC50 as lower potency in that assay.

On to `C=C1C(=O)O[C@@H]2/C=C(\C)CC[C@H]3O[C@@]3(C)CC[C@@H]12`, for which the IC50 in the experiment with T-cell came out at 2.63 µM.

On to `C=C1C(=O)O[C@@H]2/C=C(\C)CC/C=C(/COC(=O)[C@@H](NC(=O)[C@@H](N)[C@@H](C)CC)C(C)C)CC[C@@H]12`, for which, in the experiment on T-cell, the IC50 turned out to be 1.01 µM.

Turning to `C=C1C(=O)O[C@@H]2/C=C(\C)CC/C=C(\C)CC[C@@H]12` [COSTUNOLIDE], the half-inhibitory concentration (IC50) with T-cell worked out at 2.57 µM. The compound also gave a 50% effective concentration (EC50) at Pyruvate kinase PKM [1] of 1.51 µM.

In the case of `C=C1C(=O)O[C@@H]2/C=C(\C)CC/C=C(/CO)CC[C@@H]12`, the IC50 with T-cell was 0.72 µM.

For the compound `C=C1C(=O)O[C@@H]2C[C@@H](C)CC[C@H]3O[C@@]3(C)CC[C@@H]12`, the IC50 in the experiment with T-cell came to 1.97 µM.

For `C=C1C(=O)O[C@@H]2/C=C(\C)CCC[C@H](C)CC[C@@H]12`, the IC50 in the experiment with T-cell came to 2.89 µM.

On to `C=C1C(=O)O[C@@H]2C3=C(C)CC[C@@H](O)[C@]3(C)CC[C@@H]12`, for which, in the experiment with T-cell, the concentration for half-maximal inhibition (IC50) is 6.17 µM. On Pyruvate kinase PKM [2], the result was inactive.

Consider `C=C1C(=O)O[C@@H]2/C=C(\C)CC[C@H]3C(F)(F)[C@@]3(C)CC[C@@H]12`, for which the IC50 in the experiment on T-cell was 1.23 µM.

In the case of `C/C1=C\[C@H]2OC(=O)/C(=C\c3ccccc3)[C@@H]2CC/C(C)=C/CC1`, in the experiment with T-cell, the IC50 came out at 16.1 µM. The outcome on Pyruvate kinase PKM [2] was inactive.

On to `C=C1CC[C@@H](O)[C@]2(C)CC[C@H]3C(=C)C(=O)O[C@@H]3[C@@H]12` [REYNOSIN], for which the IC50 in the experiment with T-cell came out at 6.2 µM. On Pyruvate kinase PKM [2], the outcome was inactive.

Turning to `C=C1C(=O)O[C@@H]2/C=C(\C)CC/C=C(/C=O)CC[C@@H]12`, in the experiment on T-cell, the 50% inhibitory concentration (IC50) stood at 25.9 µM. At Pyruvate kinase PKM [2], the result was inactive.

As for `C=C1C(=O)O[C@@H]2/C=C(\C)CC/C=C(/CCl)CC[C@@H]12`, the half-inhibitory concentration (IC50) in the experiment on T-cell turned out to be 15.2 µM. Also, the outcome at Pyruvate kinase PKM [2] was inactive.

Turning to `C=C1C(=O)O[C@@H]2/C=C(\C)CC/C=C(/CF)CC[C@@H]12`, in the experiment on T-cell, the IC50 turned out to be 1.52 µM.

With `C=C1C(=O)O[C@H]2[C@H]1CC[C@]1(C)O[C@@H]1CC[C@@]1(C)O[C@@H]21`, the half-inhibitory concentration (IC50) with T-cell worked out at 10.6 µM. Further, the outcome at Pyruvate kinase PKM [2] was inactive.

Regarding `C=C1C(=O)O[C@@H]2/C=C(\C)CC/C=C(/C(=O)O)CC[C@@H]12`, the half-inhibitory concentration (IC50) in the experiment with T-cell stood at 10.2 µM. For the same compound, at Pyruvate kinase PKM [2], the result was inactive.

Consider `C=C1C(=O)O[C@@H]2/C=C(\C)CC/C=C(/C(F)F)CC[C@@H]12`, for which the IC50 in the experiment with T-cell came out at 1.21 µM.

Regarding `C=C1C(=O)O[C@@H]2/C=C(\C)CC/C=C(/C(=O)OCC)CC[C@@H]12`, the IC50 with T-cell came out at 1.03 µM.

With `C=C1C(=O)O[C@@H]2/C=C(\C)CC/C=C(/C(=O)OC)CC[C@@H]12`, the half-inhibitory concentration (IC50) in the experiment on T-cell worked out at 0.85 µM.

As for `C=C1C(=O)O[C@H]2[C@H]1CC[C@@H](C)CCC[C@@]1(C)O[C@@H]21`, the concentration for half-maximal inhibition (IC50) in the experiment on T-cell amounted to 1.42 µM.

Regarding `C=C1C(=O)O[C@@H]2[C@H]3C(C)=CC[C@@H](O)[C@]3(C)CC[C@@H]12` [SANTAMARIN], the IC50 in the experiment with T-cell was found to be 5.56 µM. Besides, the outcome on Pyruvate kinase PKM [2] was inactive.

Turning to `C=C1C(=O)O[C@@H]2/C=C(\C)CC/C=C(/CBr)CC[C@@H]12`, the half-inhibitory concentration (IC50) with T-cell turned out to be 11.8 µM. The result at Pyruvate kinase PKM [2] was inactive.

`C=C1C(=O)O[C@@H]2/C=C(\C)CC/C=C(/COC(=O)[C@@H](N)C(C)C)CC[C@@H]12`: the IC50 in the experiment with T-cell is 0.88 µM.

For the compound `C/C1=C\[C@H]2OC(=O)[C@@H](C)[C@@H]2CC/C(C)=C/CC1` [DIHYDRO COSTUNOLIDE], the half-maximal inhibitory concentration (IC50) in the experiment on T-cell was found to be 15 µM. The outcome on Pyruvate kinase PKM [2] was inactive.
